Test results published in the NIST ThermoML archive (doi:10.1021/je060271a).
Numbers after ± are expanded uncertainties.

Conditions: 283.15 K, Liquid, Vibrating tube method

CCCCCC(=O)OCC(COC(=O)CCCCC)(COC(=O)CCCCC)COC(=O)CCCCC [pentaerythritol tetrahexanoate]
Conditions | mass density [kg/m3]
4636.7 kPa | 1006.7 ± 1.2
4649 kPa | 1006.8 ± 1.2
4658.7 kPa | 1006.9 ± 1.2
4668 kPa | 1006.9 ± 1.2
4676.2 kPa | 1006.8 ± 1.2
4685.2 kPa | 1006.8 ± 1.2
4692.6 kPa | 1006.9 ± 1.2
4700 kPa | 1006.9 ± 1.2
4708.4 kPa | 1006.8 ± 1.2
4714.4 kPa | 1006.8 ± 1.2
4721.3 kPa | 1006.9 ± 1.2
4726.5 kPa | 1006.8 ± 1.2
4731.5 kPa | 1006.9 ± 1.2
4736.6 kPa | 1006.9 ± 1.2
4742.6 kPa | 1006.9 ± 1.2
4748 kPa | 1006.9 ± 1.2
4753 kPa | 1006.9 ± 1.2
4759.1 kPa | 1006.9 ± 1.2
4776 kPa | 1006.9 ± 1.2
4786.1 kPa | 1007 ± 1.2
4792.3 kPa | 1006.9 ± 1.2
4802.7 kPa | 1006.8 ± 1.2
4808.2 kPa | 1006.8 ± 1.2
4814.3 kPa | 1006.9 ± 1.2
4819.8 kPa | 1006.9 ± 1.2
4825.4 kPa | 1007 ± 1.2
4830.4 kPa | 1007 ± 1.2
4835.6 kPa | 1007 ± 1.2
4841.6 kPa | 1006.9 ± 1.2
4847.2 kPa | 1007 ± 1.2
4852.3 kPa | 1006.9 ± 1.2
4858.9 kPa | 1007 ± 1.2
4864.1 kPa | 1007 ± 1.2
4869.3 kPa | 1007 ± 1.2
4874.5 kPa | 1007 ± 1.2
4881.1 kPa | 1007 ± 1.2
4886.6 kPa | 1006.9 ± 1.2
4892 kPa | 1006.9 ± 1.2
4898.2 kPa | 1006.9 ± 1.2
4903.6 kPa | 1007 ± 1.2
4909.8 kPa | 1007 ± 1.2
4915.2 kPa | 1007 ± 1.2
4920.5 kPa | 1006.9 ± 1.2
4926.4 kPa | 1007.1 ± 1.2
4932 kPa | 1006.8 ± 1.2
4938.5 kPa | 1006.9 ± 1.2
4943.9 kPa | 1007 ± 1.2
4949.3 kPa | 1007 ± 1.2
4955.8 kPa | 1007 ± 1.2
4961.4 kPa | 1007 ± 1.2
4966.9 kPa | 1007 ± 1.2
4972.8 kPa | 1007 ± 1.2
4978 kPa | 1007 ± 1.2
4984.9 kPa | 1007 ± 1.2
4990.4 kPa | 1007.2 ± 1.2
4996.2 kPa | 1007 ± 1.2
5002.7 kPa | 1007.2 ± 1.2
5008.1 kPa | 1007 ± 1.2
5013.8 kPa | 1007.1 ± 1.2
5020.4 kPa | 1007 ± 1.2
5026.1 kPa | 1007 ± 1.2
5031.5 kPa | 1007.1 ± 1.2
5037.2 kPa | 1007 ± 1.2
5044.1 kPa | 1007.2 ± 1.2
5049.5 kPa | 1007.1 ± 1.2
5055.5 kPa | 1007 ± 1.2
5060.9 kPa | 1007.1 ± 1.2
5067.8 kPa | 1007 ± 1.2
5073.5 kPa | 1007.2 ± 1.2
5079.2 kPa | 1007.1 ± 1.2
5085.4 kPa | 1007.1 ± 1.2
5091.5 kPa | 1007.1 ± 1.2
5098.2 kPa | 1007 ± 1.2
5103.9 kPa | 1007.1 ± 1.2
5109.8 kPa | 1007 ± 1.2
5115.5 kPa | 1007.1 ± 1.2
5122.3 kPa | 1007 ± 1.2
5128.3 kPa | 1007.1 ± 1.2
5133.9 kPa | 1007.2 ± 1.2
5138.7 kPa | 1007.1 ± 1.2
5147 kPa | 1007.2 ± 1.3
5152.5 kPa | 1007 ± 1.2
5158.3 kPa | 1007.2 ± 1.2
5164.7 kPa | 1007.2 ± 1.2
5169.6 kPa | 1007.1 ± 1.2
5176.9 kPa | 1007 ± 1.2
5183.3 kPa | 1007.2 ± 1.2
5189 kPa | 1007.1 ± 1.2
5194.8 kPa | 1007.2 ± 1.2
5201.6 kPa | 1007.1 ± 1.2
5207.6 kPa | 1007 ± 1.2
5212.7 kPa | 1007.2 ± 1.2
5218.4 kPa | 1007.2 ± 1.2
5227 kPa | 1007.3 ± 1.2
5232.6 kPa | 1007.1 ± 1.2
5237.2 kPa | 1007.1 ± 1.2
5244.5 kPa | 1007.2 ± 1.2
5250.5 kPa | 1007.1 ± 1.2
5256.8 kPa | 1007.2 ± 1.2
5263.7 kPa | 1007.2 ± 1.2
5270.8 kPa | 1007.3 ± 1.2
5276.8 kPa | 1007.2 ± 1.2
5282.7 kPa | 1007.3 ± 1.2
5290.2 kPa | 1007.4 ± 1.2
5296 kPa | 1007.1 ± 1.2
5302.1 kPa | 1007.3 ± 1.2
5453.3 kPa | 1007.3 ± 1.2
5459.7 kPa | 1007.3 ± 1.2
5467.3 kPa | 1007.4 ± 1.2
5473.7 kPa | 1007.4 ± 1.2
5479.9 kPa | 1007.2 ± 1.2
5486.3 kPa | 1007.3 ± 1.2
5494.3 kPa | 1007.3 ± 1.2
5501 kPa | 1007.3 ± 1.2
5507.2 kPa | 1007.4 ± 1.2
5514 kPa | 1007.4 ± 1.2
5528.5 kPa | 1007.4 ± 1.2
5534.4 kPa | 1007.4 ± 1.2
5540.6 kPa | 1007.4 ± 1.2
5548.4 kPa | 1007.4 ± 1.2
5555 kPa | 1007.4 ± 1.2
5561.9 kPa | 1007.3 ± 1.2
5569.7 kPa | 1007.4 ± 1.2
5575.9 kPa | 1007.4 ± 1.2
5582.8 kPa | 1007.5 ± 1.2
5589.4 kPa | 1007.4 ± 1.2
5597.4 kPa | 1007.3 ± 1.2
5604.1 kPa | 1007.5 ± 1.2
5610.3 kPa | 1007.4 ± 1.2
5618.3 kPa | 1007.4 ± 1.2
5625 kPa | 1007.4 ± 1.2
5631.6 kPa | 1007.4 ± 1.2
5639.6 kPa | 1007.4 ± 1.2
5646.1 kPa | 1007.5 ± 1.2
5652.9 kPa | 1007.4 ± 1.2
5661 kPa | 1007.5 ± 1.2
5667.7 kPa | 1007.5 ± 1.2
5674.8 kPa | 1007.3 ± 1.2
5681.2 kPa | 1007.4 ± 1.2
5687.9 kPa | 1007.4 ± 1.2
5696.2 kPa | 1007.5 ± 1.2
5703 kPa | 1007.4 ± 1.2
5709.5 kPa | 1007.5 ± 1.2
5716.6 kPa | 1007.5 ± 1.2
5724.4 kPa | 1007.5 ± 1.2
